We go through one compound from patent publication US11944605B2, “Rapamycin analogs and uses thereof” (Janssen Pharmaceutica NV, priority 2018, dated 2024).

Assay [1] deals with mTORC1 pathway in Jurkat cells. The assay can be described thus: Western blot, mTORC1 pathway in Jurkat cells. Format: cell-based. To be noted: 24 hrs. As to the method:
(§1) The methods employed were substantially similar to those described above. Compounds were evaluated in PC3 cells, Jurkat cells, wild-type mouse embryotic fibroblast (MEF) cells, tuberous sclerosis 2 (TSC2) negative (TSC −/−) MEF cells, and tuberous sclerosis 2 (TSC2) positive (TSC +/+) MEF cells. Cells were incubated with compounds of the present invention for various time periods (e.g., 5 minutes, 15 minutes, 30 minutes, 90 minutes, 24 hours, or 48 hours), and evaluated according to known methodologies, such as those herein described.

The next assay has as its system IFN-γ production. Put plainly: IFN-γ production in allogenic mixed lymphocyte reaction. In kind it is cell-based. The procedure: Assessment of Effect on IFN-γ Production in Allogenic Mixed Lymphocyte Reaction
The effect of rapamycin, everolimus, I-29, and I-117 on IFN-y production was evaluated in an allogenic mixed lymphocyte reaction (E.g., Eleftheriadis, T. et al., Int. J. Mol. Med., 37(5): 1412-20 (2016) https://doi.org/10.3892/ijmm.2016.2547).

In assay [2] the test system is mTORC1 pathway (pS6K1 T389) in PC3 cells. The assay can be described thus: Western blot, mTORC1 pathway (pS6K1) in PC3 cells. In kind it is cell-based. Conditions: PC3 cells, 24 hours. A digest of the protocol: (§2)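 Triton lysates analysed by Western blot for pS6K1 and pAkt, detected with IRDye 800 anti-rabbit secondary on a Li-Cor imager.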
The next assay concerns mTORC1 over mTORC2. Put plainly: mTORC1 selectivity over mTORC2 at 24 hrs (Western blot based pS6K1 and pAKT assay). To be noted: 24 hrs. Format: cell-based.
The subject of assay [3] is mTORC2 (Akt phosphorylation) in TSC+/+ MEF cells. The assay can be described thus: Western blot, mTORC2 pathway (pAkt) in TSC+/+ MEF cells. In kind it is cell-based, mouse. To be noted: 90 minutes. As to the method: as §1
The subject of assay [4] is mTORC2 (Akt phosphorylation) in TSC−/− MEF cells. Put plainly: Western blot, mTORC2 pathway (pAkt) in TSC−/− MEF cells. In kind it is cell-based, mouse. As to the method:
as §1

Assay [5] has as its system mTORC2 pathway (Akt phosphorylation) in PC3 cells. The assay can be described thus: Western blot, mTORC2 pathway (pAkt) in PC3 cells. In kind it is cell-based. Conditions: 24 hours. An outline of the steps:
as §2

Assay [6] has as its system mTORC2 (Akt phosphorylation) in wild-type MEF cells. Put plainly: Western blot, mTORC2 pathway (pAkt) in wild-type MEF cells. Format: cell-based, mouse. To be noted: 24 hours. The procedure: as §1
Assay [7] has as its system mTORC1 pathway in wild-type MEF cells. Put plainly: Western blot, mTORC1 pathway in wild-type MEF cells. In kind it is cell-based, mouse. Conditions: 24 hours. The procedure: as §1
The subject of assay [8] is 4E-BP1 phosphorylation in PC3 cells. Put plainly: Western blot, 4E-BP1 phosphorylation in PC3 cells. Format: cell-based. Conditions: 24 hours.
Assay [9] relates to mTORC1 pathway in tuberous sclerosis 2 (TSC2) positive (TSC+/+) MEF cells. The assay can be described thus: Western blot, mTORC1 pathway in TSC+/+ MEF cells. Conditions: 90 minutes. Format: cell-based, mouse. The procedure:
as §1

In assay [10] the test system is mTORC2 (Akt phosphorylation) in Jurkat cells. Put plainly: Western blot, mTORC2 pathway (pAkt) in Jurkat cells. In kind it is cell-based. To be noted: 24 hrs. As to the method:
as §1

Assay [11] relates to mTORC1 pathway in tuberous sclerosis (TSC2) negative (TSC−/−) MEF cells. The assay can be described thus: Western blot, mTORC1 pathway in TSC−/− MEF cells. Format: cell-based, mouse. As to the method:
as §1

For assay [12], the system named is pS6K1 (p-p70 S6 Kinase (Thr389)) in MCF-7 cells. The assay can be described thus: AlphaLISA Ultra pS6K1 Assay. In kind it is cell-based. Conditions: Homo sapiens, 1.5 h; MCF7 cells, 90 min. A digest of the protocol:
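MCF-7 cells were seeded for 20–24 h, refed with fresh medium for 2 h, then treated with compound for 90 min at 0.5% final DMSO. Lysates were frozen at −80 °C, thawed and assayed by AlphaLISA with acceptor then donor beads, 2 h each.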

SMILES strings stand for the structures. Entries after “also recorded” stand apart in the source; their conditions may differ.

Turning to `CO[C@@H]1C[C@H](C[C@@H](C)[C@@H]2CC(=O)[C@H](C)/C=C(\C)[C@@H](O)[C@@H](OC)C(=O)[C@H](C)C[C@H](C)/C=C/C=C/C=C(\C)[C@@H](OCCOCCO)C[C@@H]3CC[C@@H](C)[C@@](O)(O3)C(=O)C(=O)N3CCCC[C@H]3C(=O)O2)CC[C@H]1OCCO` [I-117, (21E,23E,25E,26E,34R,35S,36R,37R,39S,41S,43S,44S,45R,46R, 55R)-45,55-dihydroxy-43-[2-(2-hydroxyethoxy)ethoxy]-44-[(1R)-2-[(1S,3R, 4R)-4-(2-hydroxyethoxy)-3-methoxy-cyclohexyl]-1-methyl-ethyl]-46-methoxy-34,35,36,37,47,48-hexamethyl-66, 67-dioxa-56-azatricyclohexatriaconta-21,23,25(47),26(48)-tetraene-49, 50,51,52,53-pentone], the “inhibition of the mTORC1 pathway” value in [1] is “strong inhibition”; in assay [2], “strong inhibition”; in assay [7] it was “moderate inhibition; also recorded: strong inhibition”; in assay [9], “moderate concentration dependent inhibition”; in assay [11] (90 minutes), “strong inhibition”; in assay [11] (24 hours), “strong inhibition”. Moreover, the “inhibition of IFN-γ production” value in the assay on IFN-γ production is given as “did not inhibit”. The figures for the IC50 (with IFN-γ production (read-out: IFN-γ Inhibition IC50s); in assay [12]) were over 3 µM and under 0.0001 µM, respectively. Further, the “mTORC1 selective @ 24 hrs” value with mTORC1 over mTORC2 was “YES”. For the same compound, the “inhibition of mTORC2 (Akt phosphorylation)” value in [3] is recorded as “do not inhibit”; in assay [4] (90 minutes) it was “do not inhibit”; in [4] (24 hours), “do not inhibit”; in assay [5] it was “does not inhibit”; in assay [6], “do not inhibit”; in [10] it was “do not inhibit”. Further, in assay [8], the “inhibition of 4E-BP1 phosphorylation” value is recorded as “no inhibition”.
